Experimental data from paper PMC4632086, “Effects and possible mechanisms of action of acacetin on the behavior and eye morphology of Drosophila models of Alzheimer’s disease” (Scientific Reports, 2015).
Where two headings read alike, the source gives them in different places. Blank lines part the entries; values can stand above or below the compound they belong to.

What was measured:
human BACE-1 = conditions: cited from earlier work
recombinant human BACE-1 = molecular target: T1, recombinant human BACE-1 (Homo sapiens, UniProt P56817); assay: FRET-based enzyme assay, BACE-1 inhibition; type: biochemical; conditions: for IC50: pH 4.5, 1 h at 25 °C; for Slope ± SE: slope of concentration-inhibition fit
T1 construct: purchased R&D Systems (Minneapolis, MN, USA)

[1] = tested on: transgenic Drosophila AD models; design: method as in PMID 22348084; conditions: five different transgenic Drosophila AD models; cited from earlier work

T1 sequence (P56817 46-501): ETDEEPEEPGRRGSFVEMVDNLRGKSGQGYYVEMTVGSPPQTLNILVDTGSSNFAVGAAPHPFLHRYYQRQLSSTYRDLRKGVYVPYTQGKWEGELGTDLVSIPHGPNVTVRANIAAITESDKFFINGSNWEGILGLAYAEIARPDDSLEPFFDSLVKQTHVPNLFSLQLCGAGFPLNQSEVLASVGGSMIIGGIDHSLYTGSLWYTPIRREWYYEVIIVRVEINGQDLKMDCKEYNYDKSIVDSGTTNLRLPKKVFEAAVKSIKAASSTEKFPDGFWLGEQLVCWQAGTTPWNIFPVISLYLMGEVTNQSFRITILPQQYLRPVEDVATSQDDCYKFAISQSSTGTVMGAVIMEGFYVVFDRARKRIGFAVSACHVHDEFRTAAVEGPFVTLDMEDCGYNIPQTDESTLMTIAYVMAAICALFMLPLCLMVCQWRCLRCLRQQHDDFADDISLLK

Structure (SMILES): C/C=C/c1cc(=O)c2c(C)cc(OC)c([C@@H]3O[C@H](CO)[C@@H](O)[C@H](O)[C@H]3O)c2o1 [C-2′-decoumaroyl-aloeresin G]
IC50 (human BACE-1; benzopyranoids): 20.5 µM

Structure (SMILES): CC1(C)CC[C@]2(C(=O)O)CC[C@]3(C)C(=CC[C@@H]4[C@@]5(C)C[C@@H](O)[C@H](O)C(C)(C)[C@@H]5CC[C@]43C)[C@@H]2C1 [Maslinic acid, maslinic acid]
IC50 (recombinant human BACE-1; IC50, μM (95% CL)): 488 µM
Slope ± SE (recombinant human BACE-1): 1.4 ± 0.09

IC50 (recombinant human BACE-1; read-out: IC50, μM (95% CL)): 355 µM
Structure (SMILES): CC1(C)CC[C@]2(C(=O)O)CC[C@]3(C)C(=CC[C@@H]4[C@@]5(C)CC[C@H](O)C(C)(C)[C@@H]5CC[C@]43C)[C@@H]2C1 [Oleanolic acid, oleanolic acid]

Structure (SMILES): COc1ccc(-c2cc(=O)c3c(O)cc(O)cc3o2)cc1 [Pure acacetin, acacetin]
IC50 (recombinant human BACE-1; read-out: IC50, μM (95% CL)): 81.2 µM
Slope ± SE (recombinant human BACE-1): 0.4 ± 0.03

Structure (SMILES): COc1cc(C)c2c(=O)cc(C[C@@H](C)O)oc2c1[C@@H]1O[C@H](CO)[C@@H](O)[C@H](O)[C@H]1OC(=O)/C=C/c1ccc(O)cc1 [aloeresin D]
IC50 (human BACE-1; benzopyranoids): 39 µM

Structure (SMILES): C=C[C@@](C)(/C=C/c1ccc(O)cc1)CCC=C(C)C [bakuchiol]
IC50 (human BACE-1): 21.4 µM

Structure (SMILES): O=C(O[C@@H]1O[C@@H]2COC(=O)c3cc(O)c(O)c(O)c3-c3c(cc(O)c(O)c3O)C(=O)O[C@H]([C@H]1O)[C@@H]2O)c1cc(O)c(O)c(O)c1 [corilagin]
IC50 (human BACE-1; tannins): 34 µM

Structure (SMILES): COc1cc(/C=C/C(=O)CC(=O)/C=C/c2ccc(O)c(OC)c2)ccc1O [curcumin]
improved lifespan [1]: up to 75%

Structure (SMILES): COc1cc2c(cc1OC)-c1cc3ccc4c(c3c[n+]1CC2)OCO4 [epiberberi]
IC50 (human BACE-1; alkaloids): 8.55 µM

Structure (SMILES): O=C1O[C@H]2[C@@H]3OC(=O)c4cc(O)c(O)c(O)c4-c4c(cc(O)c(O)c4O)C(=O)OC[C@H]2O[C@@H](OC(=O)c2cc(O)c(O)c(O)c2)[C@@H]3OC(=O)c2cc(O)c(O)c3c2[C@@H]2C1=CC(=O)[C@](O)(O3)C2(O)O [geraniin]
IC50 (human BACE-1; tannins): 4 µM

Structure (SMILES): COc1cc2c(cc1O)CC[n+]1cc3c4c(ccc3cc1-2)OCO4 [groenlandicine]
IC50 (human BACE-1; alkaloids): 19.7 µM

Structure (SMILES): O=C(O)/C=C/c1ccc(O)cc1 [p-coumaric acid]
IC50 (human BACE-1; phenylpropanoids): 90 µM
